{
  "source": "the Kinase Knowledgebase extract (Sharma et al. 2016)",
  "key": {"CDK2 [1]": {"target": "CDK2 (UniProt P24941)", "assay": "Enzyme Assay"}, "CDK2 [2]": {"target": "CDK2 (UniProt P24941)", "assay": "Enzyme Assay", "remark": "listed apart in the source"}},
  "data": [
    {"smiles": "CC(C)N1CCN(CCOc2ccc(-c3[nH]nc4c3C(=O)c3c(NC(=O)NN5CCOCC5)cccc3-4)cc2)CC1", "values": [
      {"measurement": "IC50", "setting": "CDK2 [1]", "result": "< 10", "unit": "nM"},
      {"measurement": "IC50", "setting": "CDK2 [2]", "result": "< 10", "unit": "nM"}
    ]},
    {"smiles": "CC(C)c1nn(-c2c(Cl)cc(Cl)cc2Cl)c2nc(Cc3ccc(NS(=O)(=O)CCCN4CCOCC4)cc3)[nH]c(=O)c12", "values": [
      {"measurement": "IC50", "setting": "CDK2 [1]", "result": "< 100", "unit": "nM"},
      {"measurement": "IC50", "setting": "CDK2 [2]", "result": "< 100", "unit": "nM"}
    ]},
    {"smiles": "O=C(Nc1cccc2c1C(=O)c1c-2n[nH]c1-c1ccc(OCCN(CCO)CCO)cc1)NN1CCOCC1", "values": [
      {"measurement": "IC50", "setting": "CDK2 [1]", "result": "< 100", "unit": "nM"},
      {"measurement": "IC50", "setting": "CDK2 [2]", "result": "< 100", "unit": "nM"}
    ]},
    {"smiles": "O=C(Nc1cccc2c1C(=O)c1c-2n[nH]c1-c1ccc(OCCN2CCCC2)cc1)NN1CCOCC1", "values": [
      {"measurement": "IC50", "setting": "CDK2 [1]", "result": "< 100", "unit": "nM"},
      {"measurement": "IC50", "setting": "CDK2 [2]", "result": "< 100", "unit": "nM"}
    ]},
    {"smiles": "CC(C)c1nn(-c2c(Cl)cc(Cl)cc2Cl)c2nc(Cc3ccc(OCCN4CCOCC4)cc3)[nH]c(=O)c12", "values": [
      {"measurement": "IC50", "setting": "CDK2 [1]", "result": "< 100", "unit": "nM"},
      {"measurement": "IC50", "setting": "CDK2 [2]", "result": "< 100", "unit": "nM"}
    ]},
    {"smiles": "CC(C)c1nn(-c2c(Cl)cccc2Cl)c2nc(Cc3ccc(OP(=O)(O)O)cc3)[nH]c(=O)c12", "values": [
      {"measurement": "IC50", "setting": "CDK2 [1]", "result": "< 10", "unit": "nM"},
      {"measurement": "IC50", "setting": "CDK2 [2]", "result": "< 100", "unit": "nM"}
    ]},
    {"smiles": "CC(C)c1nn(-c2c(Cl)cccc2Cl)c2nc(Cc3ccc(O)c(CN4CCN(C(C)C)CC4)c3)[nH]c(=O)c12", "values": [
      {"measurement": "IC50", "setting": "CDK2 [1]", "result": "< 100", "unit": "nM"},
      {"measurement": "IC50", "setting": "CDK2 [2]", "result": "< 100", "unit": "nM"}
    ]},
    {"smiles": "CCCN(CCOc1ccc(-c2[nH]nc3c2C(=O)c2c(NC(=O)NN4CCOCC4)cccc2-3)cc1)CC1CC1", "values": [
      {"measurement": "IC50", "setting": "CDK2 [1]", "result": "< 100", "unit": "nM"},
      {"measurement": "IC50", "setting": "CDK2 [2]", "result": "< 100", "unit": "nM"}
    ]},
    {"smiles": "CN1CCN(NC(=O)Nc2cccc3c2C(=O)c2c-3n[nH]c2-c2ccc(OCCN3CCCC3)cc2)CC1", "values": [
      {"measurement": "IC50", "setting": "CDK2 [1]", "result": "< 100", "unit": "nM"},
      {"measurement": "IC50", "setting": "CDK2 [2]", "result": "< 100", "unit": "nM"}
    ]},
    {"smiles": "CC(C)c1nn(-c2c(Cl)cccc2Cl)c2nc(Cc3ccc(OCCO)cc3)[nH]c(=O)c12", "values": [
      {"measurement": "IC50", "setting": "CDK2 [1]", "result": "< 100", "unit": "nM"}
    ]},
    {"smiles": "O=C(Nc1cccc2c1C(=O)c1c(-c3ccc(CNCCOCCO)cc3)n[nH]c1-2)NN1CCOCC1", "values": [
      {"measurement": "IC50", "setting": "CDK2 [1]", "result": "< 100", "unit": "nM"}
    ]},
    {"smiles": "CN1CCN(NC(=O)Nc2cccc3c2C(=O)c2c(-c4ccc(OCCN5CCCC5)c(F)c4)n[nH]c2-3)CC1", "values": [
      {"measurement": "IC50", "setting": "CDK2 [1]", "result": "< 100", "unit": "nM"}
    ]},
    {"smiles": "CN1CCN(NC(=O)Nc2cccc3c2C(=O)c2c-3n[nH]c2-c2ccc(OCCN3CCOCC3)cc2)CC1", "values": [
      {"measurement": "IC50", "setting": "CDK2 [1]", "result": "< 10", "unit": "nM"},
      {"measurement": "IC50", "setting": "CDK2 [2]", "result": "< 100", "unit": "nM"}
    ]},
    {"smiles": "CC(C)c1nn(-c2c(Cl)cccc2Cl)c2nc(Cc3ccc(C(=O)NOCCN4CCOCC4)cc3)[nH]c(=O)c12", "values": [
      {"measurement": "IC50", "setting": "CDK2 [1]", "result": "< 100", "unit": "nM"}
    ]},
    {"smiles": "COCCN1CCN(Cc2ccc(-c3[nH]nc4c3C(=O)c3c(NC(=O)NN5CCOCC5)cccc3-4)cc2)CC1", "values": [
      {"measurement": "IC50", "setting": "CDK2 [1]", "result": "< 10", "unit": "nM"}
    ]},
    {"smiles": "CC(C)C(N)C(=O)OCCN1CCN(NC(=O)Nc2cccc3c2C(=O)c2c-3n[nH]c2-c2ccc(OCCN3CCCC3)cc2)CC1", "note": "(stereo not drawn)", "values": [
      {"measurement": "IC50", "setting": "CDK2 [1]", "result": "< 100", "unit": "nM"}
    ]},
    {"smiles": "CN1CCN(NC(=O)Nc2cccc3c2C(=O)c2c-3n[nH]c2-c2ccc(O)cc2)CC1", "values": [
      {"measurement": "IC50", "setting": "CDK2 [1]", "result": "< 100", "unit": "nM"}
    ]},
    {"smiles": "O=C(Nc1cccc2c1C(=O)c1c(-c3ccc(CN(CCO)CCO)cc3)n[nH]c1-2)NN1CCOCC1", "values": [
      {"measurement": "IC50", "setting": "CDK2 [1]", "result": "< 100", "unit": "nM"}
    ]}
  ]
}
